From PubChem BioAssay AID434946 (Broad Institute, 2010)
Calls of active or inactive are those of the source.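 Rule for the calls: active = compounds lowering the growth signal with a fitted EC50 no more than tenfold above the top dose; inconclusive = flat fit with partial effect, or a poor fit; inactive = the rest.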

What follows are compounds tested on NIH 3T3 fibroblast viability, Alamar Blue fluorescence, 48 h (assay: mammalian fibroblast viability loss, compound alone – cell-based, alamar blue fluorescence, no fluconazole, cytotoxicity control for Candida fluconazole-potentiator project, dose response (AID 434946)).
With `O=C1/C(=C\c2ccccc2)CCc2c1[nH]c1ccccc21` the EC50 was > 26 µM (inactive). With `O=C(Nc1sc2c(c1C(=O)c1ccc(Cl)cc1)CCCC2)c1cccnc1` the EC50 was > 26 µM (inactive). With `Cc1ccc(C(=O)c2coc3c2C(=O)C(=O)c2ccccc2-3)cc1` the EC50 was > 26 µM (inactive). In the case of `O=C(Nc1nnc(CCc2ccccc2)s1)c1ccco1`, the EC50 is reported as > 26 µM (inactive). For `Cc1ccc(C(=O)Nc2cccc(-c3cn4ccccc4n3)c2)cc1`, the EC50 was > 26 µM (inactive). `CC(C)N1CCc2c(sc(NC(=O)c3nc4ccccc4s3)c2C(N)=O)C1` was tested, and the EC50 was > 26 µM (inactive). In the case of `c1ccc2c(c1)OCC(CNc1ncnc3sccc13)O2` (configuration not stated), the EC50 is reported as > 26 µM (inactive). In the case of `Cc1nc2ccccc2cc1OCc1ccc(F)cc1`, the EC50 is reported as > 26 µM (inactive). For `COc1cc2c(cc1NC(=O)c1ccco1)CCCC2`, the EC50 was > 26 µM (inactive). For `Cc1ccc(/C=C/C(=O)c2ccccc(=O)c2O)cc1C`, the EC50 was > 26 µM (inactive). For `CCOC(=O)N1C(=O)C2(CCCCC2)N(c2ccc(C)cc2)C1=S`, the EC50 was 0.888 µM. With `Cc1oc2c(F)c(F)c(F)c(F)c2c1S(=O)(=O)Nc1cccc(C(F)(F)F)c1` the EC50 was > 26 µM (inactive). For `O=C(Nc1nc(-c2ccccn2)cs1)c1ccc(Br)s1`, the EC50 was 11.9 µM. With `CCc1ccc2c(c1)/C(=C/C(=O)c1cccs1)C(=O)N2` the EC50 was > 26 µM (inactive). For `Clc1ccc2c(c1)C(c1cccs1)=NNC(c1cccnc1)=N2`, the EC50 was > 26 µM (inactive). With `Nc1nccnc1C(=O)Nc1nnc(SCc2ccc(Cl)cc2)s1` the EC50 was > 26 µM (inactive). For `O=C(Nc1nnc(-c2ccco2)o1)c1ccc(Cl)cc1`, the EC50 was > 26 µM (inactive). Work on `CCCC(=O)NC(c1ccc(Cl)cc1)c1ccc2cccnc2c1O` (configuration not stated) yielded an EC50 of 21.3 µM. For `O=C(Nc1nnc(SCc2ccc(Cl)cc2)s1)c1ccc2ccccc2n1`, the EC50 was > 26 µM (inactive). For `COc1ccc(-c2nnc(NC(=O)c3ccc(F)cc3)o2)cc1`, the EC50 was > 26 µM (inactive). For `COc1ccc(-n2nc(C(=O)NCC(=O)N3CCN(c4ccccc4)CC3)c3ccccc3c2=O)c(OC)c1`, the EC50 was > 26 µM (inactive). Work on `CC(C)COCc1ccc(O)c2ncccc12` yielded an EC50 of 19.5 µM. In the case of `CCOC(=O)c1c(-c2ccccc2Cl)cn2ccccc12`, the EC50 is reported as > 26 µM (inactive). Compound `O=C(Nc1nnc(-c2ccc3c(c2)CCCC3)o1)c1ccc(Cl)cc1Cl` has an EC50 of 18.4 µM. `O=C(NNC1=C(C(=O)C(F)(F)F)CCC1)c1ccc(Cl)cc1` was tested, and the EC50 was > 26 µM (inactive). `O=C(Oc1c(Cl)cc(Cl)c2cccnc12)c1cccs1` showed an EC50 of 1.98 µM. For `Cc1ccc(Nc2nc(N)c([N+](=O)[O-])c(N3CCC(C)CC3)n2)cc1C`, the EC50 was > 26 µM (inactive).
